From publication PMC8179002, “Inhibitors of thiol-mediated uptake” (Chemical Science, 2020)
Like-named read-outs stand apart in the source and are kept apart here. Bridge positions count the residues as written; N and C are the ends. Peptide text beside a SMILES is read from it.

Key:
[1] = Relative cell viability in HCHT screening (propidium iodide negative nuclei count); type: cell-based; details: human, HeLa, read-out: GI50, concentration causing 50% cell growth inhibition
Protocol: (§1) With COCs 1 and 2 as cell-penetrating reporters, a fully automated, fluorescent microscopy image-based high-content high-throughput (HCHT)[19] inhibitor screening assay was developed. HeLa cells in multiwell plates are incubated with a reporter at constant and inhibitors at varying concentrations and incubation times. Hindered reporter uptake then causes decrease of fluorescence inside of cells (Fig. 3a). Automated data analysis[19] was established to extract average fluorescence intensity per cell and, at the same time, cell viability from propidium iodide negative nuclei count (Fig. 3 and S3–S6 ^†). Standard assay conditions consisted of pre-incubation of HeLa cells with inhibitors for different periods of time, followed by the removal of inhibitors and the addition of reporters, thus excluding possible interactions between the two in the extracellular environment. In alternative co-incubation conditions, inhibitors were not removed before the addition of reporters to allow for eventual interactions between the two.
(§2) To be able to extract the fluorescent integrated intensity information (sum of the intensities of all the pixels included in the mask) from the green channel for live cell only, the image analysis pipeline contains several steps of cell filtering and selection:
(§3) 1) Firstly, PI is used to stain any remaining nuclei of dead cell. In the analysis pipeline, all the “dead” nuclei are detected based on their fluorescent intensity in the PI channel (Figure […]
(§4) Fig. S4 (A) PI positive nuclei mask (fluorescent intensity threshold of 1000). (B) Overlap image of dead nuclei mask and original all cell body mask. (C) Resulting cell mask after removing any cell marked by a dead nucleus, new mask is called “Live Cell”. Scale bar: 50 μm.
(§5) 2) Elimination of non-full cells from the border of the image is performed, to avoid inaccurate fluorescent integrated intensity quantification (fluorescent integrated intensity = sum of intensity of all the pixel of the object) (Figure S5).
(§6) (1 picture or pasted object on this page, not shown here)
(§7) 4.3. HCHT Inhibitor Screening with ETP as Reporter […]
(§8) Relative cell viability (RV) for each condition in the presence of inhibitors were calculated using the count value of living cells by dividing the count value of living cells with addition of reporter 1, Hoechst 33342 and PI, for each set of experiments. Duplicates were performed for each condition. The resulting dependence of the relative cell viability (RVrel) to the concentration of inhibitors (cinhibitor) was plotted and fitted with Equation (S2) to retrieve the concentration causing 50% cell growth inhibition (GI50) value and the Hill coefficient (n).
(§9) RVrel = 1 / (1 + (GI50 / cinhibitor)n) (S2)
(§10) Note: Reporter 1 were not toxic for 1 h at 10 μM.S2 Also in this study, the count value of living cells with addition of reporter 1, Hoechst 33342 and PI is always similar to that of living cells with only addition of Hoechst 33342 and PI.
as §8, with “with” for “in the presence of”, “2,” for “1,”
(§11) Note: Reporter 2 were not toxic for 24 h at 10 μM.S3 Also in this study, the count value of living cells with addition of reporter 2, Hoechst 33342 and PI is always similar to that of living cells with only addition of Hoechst 33342 and PI.
(§12) 4.4.1. Screening with Disulfides as Inhibitors
(§13) 4.4.1.1. Screening with ETP as Inhibitors
(§14) Fig. S35 Automatically analyzed HCHT data showing fluorescence intensity (filled symbols) and relative viability (empty symbols) of HeLa cells after pre-incubation with 3 for 1 h (blue […]

HeLa Kyoto cells = assay: as above; type: cell-based; details: HeLa, removal, tinc 0.5 h with 1 (10 µM), read-out: GI50, concentration causing 50% cell growth inhibition
Protocol: as §1, §2, §3, §4, §5, §6, §7, §8, §9, §10
as §8, with “with” for “in the presence of”, “2,” for “1,”
as §11, §12, §13, §14

[2] = trans to cis isomer 22; Fig. S46
[3] = test system: A549 human lung alveolar basal epithelium cells overexpressing ACE2 and TMPRSS2; details: Fig. S44
[4] = tpre 0.5 h, then tco 0.5 h co-incubation of inhibitor and 1 (10 µM)
[5] = tpre 5.5 h with FBS, then tco 0.5 h co-incubation of inhibitor and 1 (10 µM)
[6] = tpre 23.5 h with FBS, then tco 0.5 h co-incubation of inhibitor and 1 (10 µM)
[7] = tpre 0.5 h, then tco 0.5 h co-incubation of inhibitor and 2 (10 µM)
[8] = tpre 0.5 h with inhibitor, removal, tinc 0.5 h with 1 (10 µM)
[9] = tpre 1 h with inhibitor, removal, tinc 0.5 h with 1 (10 µM)
[10] = tpre 1 h with inhibitor, removal, tinc 0.5 h with 2 (10 µM)
[11] = tpre 2 h with inhibitor, removal, tinc 0.5 h with 1 (10 µM)
[12] = tpre 4 h with inhibitor, removal, tinc 0.5 h with 1 (10 µM)
[13] = tpre 6 h with FBS, removal, tinc 0.5 h with 2 (10 µM)
[14] = HeLa Kyoto cells, tpre 0.5 h, then tco 0.5 h co-incubation of inhibitor and 2 (10 µM)
[15] = HeLa Kyoto cells, tpre 0.5 h with inhibitor, removal, tinc 0.5 h with 1 (10 µM)
[16] = HeLa Kyoto cells, tpre 1 h with inhibitor, removal, tinc 0.5 h with 1 (10 µM)
[17] = HeLa Kyoto cells, tpre 1 h with inhibitor, removal, tinc 0.5 h with 2 (10 µM)
[18] = HeLa Kyoto cells, tpre 1.5 h, then tco 0.5 h co-incubation of inhibitor and 2 (10 µM)
[19] = HeLa Kyoto cells, tpre 2 h with inhibitor, removal, tinc 0.5 h with 1 (10 µM)
[20] = HeLa Kyoto cells, tpre 2 h with inhibitor, removal, tinc 0.5 h with 2 (10 µM)
[21] = HeLa Kyoto cells, tpre 4 h with inhibitor, removal, tinc 0.5 h with 2 (10 µM)
[22] = tpre 4 h with inhibitor, removal, tinc 0.5 h with 2 (10 µM)
[23] = tpre 23.5 h with FBS, then tco 0.5 h co-incubation of inhibitor and 2 (10 µM)

Compound	GI50 [1, 4]	GI50 [1, 5]	GI50 [1, 6]	GI50 [1, 7]	GI50 [1, 8]	GI50 [1, 9]	GI50 [1, 11]	GI50 [1, 12]	GI50 [1, 13]	GI50 [1, 22]	other results
[O-][S+]1CC(O)C(O)CS1 (stereo not shown) [compound 17]	> 500 µM	> 1000 µM	450 ± 50 µM								GI50 (HeLa Kyoto cells; tpre 1 h with inhibitor): 710 ± 50 µM; GI50 (HeLa Kyoto cells; tpre 2 h with inhibitor): 730 ± 10 µM; GI50 (HeLa Kyoto cells; tpre 4 h with inhibitor): ~500 µM; Isomerization [2]: isomerized with time
CCN1C(=O)C2SSSSC1C(=O)N2CC(=O)O (stereo not shown) [compound 3]	13.3 ± 0.8 µM	> 50 µM	> 50 µM	~20 µM	34 ± 2.9 µM	35 ± 4.4 µM	46.1 ± 4.8 µM	> 50 µM	> 100 µM		Concentration at which toxicity was detected [3]: 50 µM; GI50 [1, 10]: > 20 µM
N[C@H]1CSSC[C@@H](C(=O)N[C@@H](CCC(=O)O)C(=O)O)NC(=O)CNC1=O [compound 19] (H-CGCE-OH; disulfide 1-3)											GI50 at 1 h [1, 14]: > 500 µM; GI50 at 0.5 h [1, 15]: > 2000 µM; GI50 at 1 h [1, 16]: > 2000 µM; GI50 at 1 h [1, 17]: > 1000 µM; GI50 at 2 h [1, 18]: > 500 µM; GI50 at 2 h [1, 19]: > 2000 µM; GI50 at 2 h [1, 20]: > 1000 µM; GI50 at 4 h [1, 21]: > 1000 µM
O=C(O)CC[C@H](NC(=O)CCCCC1CCSS1(=O)=O)C(=O)O (stereo partly shown) [compound 15]		> 1000 µM	944 ± 60 µM		> 500 µM	> 500 µM	> 500 µM			> 500 µM	GI50 [1, 23]: > 500 µM
N[C@H]1CSSC[C@@H](C(=O)NCC(=O)O)NC(=O)[C@H](CCC(=O)O)NC1=O [compound 18] (H-CECG-OH; disulfide 1-3)											GI50 at 1 h ([1]; HeLa Kyoto cells, tpre 0.5 h, then tco 0.5 h co-incubation of inhibitor and 1 (10 µM)): > 500 µM; GI50 at 1 h [1, 14]: > 500 µM; GI50 at 0.5 h [1, 15]: > 2000 µM; GI50 at 1 h [1, 16]: > 2000 µM; GI50 at 1 h [1, 17]: > 1000 µM; GI50 at 2 h [1, 18]: > 500 µM; GI50 at 2 h [1, 19]: > 2000 µM; GI50 at 2 h [1, 20]: > 1000 µM; GI50 at 4 h [1, 21]: > 1000 µM; GI50 at 6 h ([1]; HeLa Kyoto cells, tpre 5.5 h with FBS, then tco 0.5 h co-incubation of inhibitor and 1 (10 µM)): > 1000 µM; GI50 at 24 h ([1]; HeLa Kyoto cells, tpre 23.5 h with FBS, then tco 0.5 h co-incubation of inhibitor and 1 (10 µM)): > 1000 µM
O=C(O)CNC(=O)c1ccc2c(c1)SSSSS2 [compound 6]	> 20 µM	> 20 µM	> 20 µM	> 20 µM	> 100 µM	~98 µM	~45 µM	~44 µM	~105 µM	~17 µM	
CCN1C(=O)C2SSC1C(=O)N2CC(=O)O (stereo not shown) [compound 4]	~8.4 µM	> 20 µM	> 20 µM	~20 µM	> 100 µM	12.5 ± 0.7 µM	~9.2 µM	6.4 ± 0.3 µM		~4 µM	GI50 [1, 10]: > 20 µM
O=S1(=O)C[C@H](O)[C@H](O)CS1 [compound 16]		> 1000 µM	490 ± 60 µM			1300 ± 490 µM				> 500 µM	Concentration at which toxicity was detected [3]: 500 µM
O=C(CN1C(=O)C2SSC1C(=O)N2CCOc1ccccc1)NCC(=O)OC[C@H]1OC(O)[C@H](O)[C@@H](O)[C@@H]1O (stereo partly shown) [compound 7]		> 100 µM	> 100 µM		> 100 µM	> 100 µM	> 100 µM		> 200 µM	> 100 µM	GI50 [1, 23]: > 100 µM
O=C(O)CC[C@H](NC(=O)CN1C(=O)C2SSC1C(=O)N2CCOc1ccccc1)C(=O)O (stereo partly shown) [compound 9]					> 100 µM	> 100 µM	> 100 µM		> 200 µM	> 100 µM	
